Format in all cases: biochemical
In test [1] the target is EGFR (Homo sapiens, UniProt P00533). As to the kind of experiment: Inhibition of a panel of kinases, in vitro HotSpot kinase assay: EGFR. The following applies: Table 15, C compounds; 1 μM ATP. The method, then: (§1) The degree of inhibition of a panel of kinases is determined using the in vitro HotSpot kinase assay (purified enzymes, ^33P-ATP, an appropriate substrate and 1 μM ATP).

In test [2] the target is LCK (Homo sapiens, UniProt P06239). As to the kind of experiment: Inhibition of a panel of kinases, in vitro HotSpot kinase assay: LCK. The following applies: Table 15, C compounds; 1 μM ATP; read-out: IC50 LCK.
Test [3] concerns the target T1, ITK (Homo sapiens, UniProt Q08881).
T1 sequence (Q08881 1-620): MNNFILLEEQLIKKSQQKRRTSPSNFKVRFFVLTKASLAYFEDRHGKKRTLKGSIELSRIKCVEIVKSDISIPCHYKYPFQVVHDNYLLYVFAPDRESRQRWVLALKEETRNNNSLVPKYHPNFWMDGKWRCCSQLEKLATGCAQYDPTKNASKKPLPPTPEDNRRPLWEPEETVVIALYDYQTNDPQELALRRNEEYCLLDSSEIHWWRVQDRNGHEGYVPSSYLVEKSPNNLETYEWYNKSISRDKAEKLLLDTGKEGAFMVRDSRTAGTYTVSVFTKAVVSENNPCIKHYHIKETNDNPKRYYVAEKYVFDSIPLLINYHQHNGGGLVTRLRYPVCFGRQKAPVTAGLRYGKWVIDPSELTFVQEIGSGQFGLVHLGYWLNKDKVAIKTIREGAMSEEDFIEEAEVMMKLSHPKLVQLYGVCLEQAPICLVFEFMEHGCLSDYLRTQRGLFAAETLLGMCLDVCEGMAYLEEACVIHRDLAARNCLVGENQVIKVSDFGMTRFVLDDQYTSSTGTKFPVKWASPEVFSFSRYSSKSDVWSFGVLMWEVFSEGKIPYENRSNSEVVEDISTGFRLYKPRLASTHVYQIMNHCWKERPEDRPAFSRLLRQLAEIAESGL
As to the kind of experiment: Inhibition of a panel of kinases, in vitro HotSpot kinase assay: ITK. The following applies: Table 15, C compounds; 1 μM ATP. The method, then: as §1

For test [4], the target named is T2, TXK (Homo sapiens, UniProt P42681).
T2 sequence (P42681 1-527): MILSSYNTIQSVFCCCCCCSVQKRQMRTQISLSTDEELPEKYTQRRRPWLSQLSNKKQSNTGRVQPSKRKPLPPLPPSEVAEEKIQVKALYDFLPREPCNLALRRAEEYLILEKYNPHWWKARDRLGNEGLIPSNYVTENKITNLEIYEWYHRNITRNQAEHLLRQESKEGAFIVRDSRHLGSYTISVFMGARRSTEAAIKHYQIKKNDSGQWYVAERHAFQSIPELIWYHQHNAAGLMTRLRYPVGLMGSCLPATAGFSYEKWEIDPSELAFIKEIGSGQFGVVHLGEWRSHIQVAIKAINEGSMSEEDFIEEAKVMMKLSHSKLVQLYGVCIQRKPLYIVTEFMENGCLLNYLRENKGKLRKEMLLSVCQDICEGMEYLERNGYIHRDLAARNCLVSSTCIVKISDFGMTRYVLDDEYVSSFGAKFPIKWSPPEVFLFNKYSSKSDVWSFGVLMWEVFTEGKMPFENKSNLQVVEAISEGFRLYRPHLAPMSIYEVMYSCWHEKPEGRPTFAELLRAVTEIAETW
The experiment in a line: Inhibition of a panel of kinases, in vitro HotSpot kinase assay: TXK. The conditions noted are these: Table 15, C compounds; 1 μM ATP. The method, then: as §1

In test [5] the target is T3, BTK-WT (Homo sapiens, UniProt Q06187).
T3 construct: purified from insect cells as a full-length construct containing an N-terminal 6X-His tag; His6 (N); made in house; host or cells: insect cells (baculovirus Sf21 in Method B)
As to the kind of experiment: Btk in vitro inhibitory activity (one of Method A TR-FRET, Method B electrophoretic mobility shift, Method C radiometric filter binding). The conditions noted are these: Table 15, C compounds; read-out: IC50 BTK-WT.

A value given as a limit tells only on which side of the number the result lay.

T3 sequence (Q06187 whole entry): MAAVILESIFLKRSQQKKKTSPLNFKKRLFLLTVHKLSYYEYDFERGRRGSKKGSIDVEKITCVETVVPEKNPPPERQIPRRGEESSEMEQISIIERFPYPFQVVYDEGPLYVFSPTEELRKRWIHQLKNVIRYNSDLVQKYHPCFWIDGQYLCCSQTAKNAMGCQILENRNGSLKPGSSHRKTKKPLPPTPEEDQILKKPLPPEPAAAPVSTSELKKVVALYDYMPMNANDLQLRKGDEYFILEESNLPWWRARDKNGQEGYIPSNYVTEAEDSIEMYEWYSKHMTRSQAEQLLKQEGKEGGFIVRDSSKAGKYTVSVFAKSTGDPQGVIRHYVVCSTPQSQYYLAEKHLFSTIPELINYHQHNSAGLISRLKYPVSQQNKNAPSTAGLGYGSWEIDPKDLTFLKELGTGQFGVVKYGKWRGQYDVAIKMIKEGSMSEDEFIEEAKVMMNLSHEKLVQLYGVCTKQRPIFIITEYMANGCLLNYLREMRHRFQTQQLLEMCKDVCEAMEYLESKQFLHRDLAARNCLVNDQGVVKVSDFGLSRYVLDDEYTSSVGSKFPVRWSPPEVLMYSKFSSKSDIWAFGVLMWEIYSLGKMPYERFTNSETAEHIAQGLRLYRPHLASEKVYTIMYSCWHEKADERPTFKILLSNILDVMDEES
LCK, sequence (P06239 whole entry): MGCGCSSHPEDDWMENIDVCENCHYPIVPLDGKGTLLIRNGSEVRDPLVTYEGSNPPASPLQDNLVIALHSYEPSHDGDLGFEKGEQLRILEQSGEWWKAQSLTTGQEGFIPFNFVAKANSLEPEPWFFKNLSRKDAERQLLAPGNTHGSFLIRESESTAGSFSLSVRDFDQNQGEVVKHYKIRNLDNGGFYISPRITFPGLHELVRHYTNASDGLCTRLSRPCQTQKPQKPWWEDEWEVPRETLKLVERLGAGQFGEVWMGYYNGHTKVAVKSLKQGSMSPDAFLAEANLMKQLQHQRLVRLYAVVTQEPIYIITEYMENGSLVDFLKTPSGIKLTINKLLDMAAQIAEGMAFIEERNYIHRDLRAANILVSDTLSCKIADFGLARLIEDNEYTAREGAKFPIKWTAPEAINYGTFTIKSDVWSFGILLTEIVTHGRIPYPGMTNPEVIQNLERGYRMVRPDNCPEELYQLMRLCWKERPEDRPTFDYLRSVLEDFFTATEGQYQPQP
EGFR, sequence (P00533 25-1210): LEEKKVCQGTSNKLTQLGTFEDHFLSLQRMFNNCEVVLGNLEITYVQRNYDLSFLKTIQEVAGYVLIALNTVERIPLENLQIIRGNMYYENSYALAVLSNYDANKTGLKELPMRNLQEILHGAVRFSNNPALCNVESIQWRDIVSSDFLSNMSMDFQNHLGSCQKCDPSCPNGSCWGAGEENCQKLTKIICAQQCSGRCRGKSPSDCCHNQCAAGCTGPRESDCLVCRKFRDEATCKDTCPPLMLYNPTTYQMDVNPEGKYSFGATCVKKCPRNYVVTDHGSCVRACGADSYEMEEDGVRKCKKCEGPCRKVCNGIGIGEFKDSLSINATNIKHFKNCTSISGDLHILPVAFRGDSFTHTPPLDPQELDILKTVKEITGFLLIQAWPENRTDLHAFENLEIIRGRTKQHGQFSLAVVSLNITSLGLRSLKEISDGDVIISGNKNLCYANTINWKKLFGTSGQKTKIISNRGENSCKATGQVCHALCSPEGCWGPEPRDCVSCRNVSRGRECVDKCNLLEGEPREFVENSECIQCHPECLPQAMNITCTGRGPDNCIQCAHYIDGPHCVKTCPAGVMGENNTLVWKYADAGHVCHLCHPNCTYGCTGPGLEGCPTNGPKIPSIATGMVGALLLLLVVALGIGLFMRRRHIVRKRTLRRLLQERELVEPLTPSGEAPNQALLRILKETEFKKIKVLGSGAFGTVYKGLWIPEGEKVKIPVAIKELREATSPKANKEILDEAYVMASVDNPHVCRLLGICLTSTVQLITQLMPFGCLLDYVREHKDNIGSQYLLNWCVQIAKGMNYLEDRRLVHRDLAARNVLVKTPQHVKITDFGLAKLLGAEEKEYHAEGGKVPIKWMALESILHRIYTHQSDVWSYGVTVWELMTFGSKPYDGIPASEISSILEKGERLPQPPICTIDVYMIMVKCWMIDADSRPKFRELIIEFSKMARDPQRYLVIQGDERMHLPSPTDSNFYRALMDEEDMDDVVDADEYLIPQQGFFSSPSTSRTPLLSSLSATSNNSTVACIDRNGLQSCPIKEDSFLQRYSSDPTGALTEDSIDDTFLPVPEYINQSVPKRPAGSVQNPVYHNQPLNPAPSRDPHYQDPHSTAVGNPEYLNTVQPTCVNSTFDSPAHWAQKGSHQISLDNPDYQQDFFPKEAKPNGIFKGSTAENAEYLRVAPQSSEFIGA

In the case of `C=CC(=O)N1CC[C@@H](N(C)c2cnc(C(N)=O)c(Nc3ccc(C4CCN(C5CCCC5)CC4)cc3)n2)C1` [Example C-85, (R)-5-((1-acryloylpyrrolidin-3-yl)(methyl)amino)-3-(4-(1-cyclopentylpiperidin-4-yl)phenylamino) pyrazine-2-carboxamide], the IC50 in test [1] is 10 to 100 nM; in test [2] it was 100 to 1000 nM; in test [3], not above 10 nM; in test [4], not above 10 nM; in test [5], not above 10 nM.

Turning to `C=CC(=O)N1CCC[C@@H](Nc2cnc(C(N)=O)c(Nc3ccc(C4CCN(C5CCCC5)CC4)cc3)n2)C1` [Example C-84, (R)-5-(1-acryloylpiperidin-3-ylamino)-3-(4-(1-cyclopentylpiperidin-4-yl)phenylamino)pyrazine-2-carboxamide], the IC50 in test [1] is not above 10 nM; in test [2], 10 to 100 nM; in test [3] it was not above 10 nM; in test [4], not above 10 nM; in test [5], not above 10 nM.

Take `C=CC(=O)N1CC[C@@H](N(C)c2nnc(C(N)=O)c(Nc3ccc(C(C)C)cc3)n2)C1` [Example C-41, (R)-3-((1-acryloylpyrrolidin-3-yl)(methyl)amino)-5-(4-isopropylphenylamino)-1,2,4-triazine-6-carboxamide]: the IC50 was not above 10 nM in test [1]; 1000 to 10000 nM in test [2]; not above 10 nM in test [3]; not above 10 nM in test [4]; not above 10 nM in test [5].

Consider `C=CC(=O)N1CCC[C@@H](Nc2nnc(C(N)=O)c(Nc3ccc(C(C)(C)C)cc3)n2)C1` [Example C-40, (R)-3-(1-acryloylpiperidin-3-ylamino)-5-(4-tert-butylphenylamino)-1,2,4-triazine-6-carboxamide], for which the IC50 in test [1] was not above 10 nM; in test [2], 100 to 1000 nM; in test [3], not above 10 nM; in test [4], not above 10 nM; in test [5], not above 10 nM.

As for `C=CC(=O)N1CCC[C@@H](N(C)c2cnc(C(N)=O)c(Nc3ccc(C4(C)CCN(C5CCCC5)CC4)cc3)n2)C1` [Example C-44, (R)-5-((1-acryloylpiperidin-3-yl)(methyl)amino)-3-(4-(1-cyclopentyl-4-methylpiperidin-4-yl)phenylamino) pyrazine-2-carboxamide], the IC50 in test [1] was not above 10 nM; in test [2], less than 10 nM; in test [3] it was not above 10 nM; in test [4], not above 10 nM; in test [5] it was not above 10 nM.

Regarding `C=CC(=O)N1CCC[C@@H](Nc2nnc(C(N)=O)c(Nc3cc(C)ns3)n2)C1` [Example C-56, (R)-3-(1-acryloylpiperidin-3-ylamino)-5-(3-methylisothiazol-5-ylamino)-1,2,4-triazine-6-carboxamide], the IC50 in test [1] was not above 10 nM; in test [2], 10 to 100 nM; in test [3], not above 10 nM; in test [4], not above 10 nM; in test [5] it was not above 10 nM.

In the case of `C=CC(=O)N1CCC[C@@H](N(C)c2cnc(C(N)=O)c(Nc3ccc(C(C)C)cc3)n2)C1` [Example C-42, (R)-5-((1-acryloylpiperidin-3-yl)(methyl)amino)-3-(4-isopropylphenylamino) pyrazine-2-carboxamide], the IC50 in test [2] is 1000 to 10000 nM; in test [3], 10 to 100 nM; in test [4], not above 10 nM; in test [5], not above 10 nM.

In the case of `C=CC(=O)N1CCC[C@@H](Nc2nnc(C(N)=O)c(Nc3ccc(C4CCN(C(=O)CC)CC4)cc3)n2)C1` [Example C-57, (R)-3-(1-acryloylpiperidin-3-ylamino)-5-(4-(1-propionylpiperidin-4-yl)phenylamino)-1,2,4-triazine-6-carboxamide], the IC50 is not above 10 nM in test [1]; 10 to 100 nM in test [2]; not above 10 nM in test [3]; not above 10 nM in test [4]; not above 10 nM in test [5].
